{
  "source": "paper PMC6722883",
  "about": "(FEBS Open Bio, 2019)",
  "assay": "physchem",
  "conditions": "buffer or solvent, pH 7.2",
  "data": [
    {"smiles": "CC[C@H](C)[C@@H]1NC(=O)[C@@H]2CCCN2C(=O)[C@H](CO)NC(=O)[C@H](CCSC)NC(=O)[C@H](C)NC(=O)[C@H](CO)NC(=O)[C@@H]2CSSC[C@H](NC(=O)CN)C(=O)N[C@@H](CSSC[C@@H](C(N)=O)NC1=O)C(=O)N[C@@H](CO)C(=O)N[C@@H](Cc1cnc[nH]1)C(=O)N1CCC[C@H]1C(=O)N[C@@H](C(C)C)C(=O)N2", "note": "[TxID, α‐Conotoxin TxID]", "values": [
      {"measurement": "remaining at 4 h", "result": "~50", "unit": "%"}
    ]}
  ]
}
